Data reported in the NIST ThermoML archive (doi:10.1016/j.fluid.2015.07.045).
Numbers after ± are expanded uncertainties.

How the values were obtained:
[1] = 298.15 K; 101.33 kPa; Liquid; Vibrating tube method
[2] = Boiling temperature at pressure P; conditions: 101.3 kPa; Liquid; Ebulliometric method (Recirculating still)

| SMILES | mass density [1] | Boiling temperature at pressure P [2] |
| --- | --- | --- |
| C[n+]1ccn(Cc2ccccc2)c1.[Cl-] [1-benzyl-3-methyl-1H-imidazolium chloride] | 1192.8 ± 0.6 kg/m3 |  |
| CCCCCCn1cc[n+](C)c1.[Cl-] [1-hexyl-3-methylimidazolium chloride] | 1044.3 ± 0.5 kg/m3 |  |
| CCCCCCn1cc[n+](C)c1.[Br-] [3-hexyl-1-methyl-1H-imidazolium bromide] | 1229.2 ± 0.6 kg/m3 |  |
| CO [methanol] | 787.1 ± 0.4 kg/m3 | 64.54 ± 0.1 °C |
| COC(C)=O [methyl ethanoate] | 927.3 ± 0.4 kg/m3 | 57.1 ± 0.1 °C |
